Experimental data taken from patent publication US8163909B2, “Substituted hydroxyethyl amine compounds as beta-secretase modulators and methods of use” (Amgen Inc., priority 2007, dated 2012).

What was measured:
CYP2D6 = CYP2D6 (Homo sapiens, UniProt P10635); test: CYP2D6 inhibition assay (bufuralol, pooled human liver microsomes); details: 2D6 IC50, CYP2D6 inhibition
[1] = Microsomal stability assay, rat liver microsomes; details: rat liver microsomes;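 note: rat liver microsomes (0.25 mg/mL) with about 1 µM compound plus 1 mM NADPH, pH 7.4, 37 °C for 30 min, parent left measured by LC-MS/MS against 0 min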
[2] = Microsomal stability assay, human liver microsomes; details: human liver microsomes;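 note: pooled human liver microsomes at 0.25 mg/mL with 1 µM compound and NADPH at 37 °C, pH 7.4, for 30 min, unchanged parent quantified by LC-MS/MS against the 0 min sample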
CYP3A4 (CYP3A) = CYP3A4 (CYP3A) (Homo sapiens, UniProt P08684); test: in vitro; details: microsomes, pH 7.4;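 note: inhibition of CYP3A-mediated 1-hydroxymidazolam formation after 10 min incubation with NADPH, quantified by HPLC MS relative to metabolite produced without test compound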
CYP3A4 (CYP3A), sequence (P08684 2-503): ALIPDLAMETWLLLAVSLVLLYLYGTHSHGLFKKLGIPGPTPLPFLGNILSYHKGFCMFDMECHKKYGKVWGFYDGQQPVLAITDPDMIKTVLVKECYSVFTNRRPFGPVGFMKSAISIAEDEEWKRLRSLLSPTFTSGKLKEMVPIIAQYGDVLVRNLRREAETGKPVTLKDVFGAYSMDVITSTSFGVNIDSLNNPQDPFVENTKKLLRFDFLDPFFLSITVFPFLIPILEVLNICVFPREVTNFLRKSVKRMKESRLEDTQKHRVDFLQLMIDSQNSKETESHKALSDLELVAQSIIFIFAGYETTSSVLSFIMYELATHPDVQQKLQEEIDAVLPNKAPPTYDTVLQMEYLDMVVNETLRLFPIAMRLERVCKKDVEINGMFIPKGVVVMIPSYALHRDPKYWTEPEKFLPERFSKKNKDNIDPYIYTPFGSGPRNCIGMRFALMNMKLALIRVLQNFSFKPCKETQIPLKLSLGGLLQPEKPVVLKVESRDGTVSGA

[3] = target: Beta Secretase enzyme (BACE) (Homo sapiens, UniProt P56817); test: In vitro enzymatic BACE FRET (fluorescence resonance energy transfer) assay; type: biochemical; details: read-out: BACE1 FRET assay (IC50);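 note: fluorescence read after 1 h with 50 nM quenched peptide substrate spanning the BACE cleavage site, in pH 4.2 acetate buffer containing 10% DMSO and nonionic detergent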
Beta Secretase enzyme (BACE), sequence (P56817 46-501): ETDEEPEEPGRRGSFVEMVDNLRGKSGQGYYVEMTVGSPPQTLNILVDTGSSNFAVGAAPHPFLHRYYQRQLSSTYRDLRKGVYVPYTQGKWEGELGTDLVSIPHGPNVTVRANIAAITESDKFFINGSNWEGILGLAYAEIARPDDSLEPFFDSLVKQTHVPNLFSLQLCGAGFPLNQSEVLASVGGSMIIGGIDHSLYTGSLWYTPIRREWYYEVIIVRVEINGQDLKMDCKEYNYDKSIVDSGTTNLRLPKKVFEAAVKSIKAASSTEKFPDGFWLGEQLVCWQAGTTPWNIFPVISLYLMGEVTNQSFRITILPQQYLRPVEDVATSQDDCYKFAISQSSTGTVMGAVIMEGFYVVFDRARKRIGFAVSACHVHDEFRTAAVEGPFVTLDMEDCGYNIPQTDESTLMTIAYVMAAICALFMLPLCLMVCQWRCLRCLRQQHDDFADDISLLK

[4] = system: Aβ40 in conditioned medium of cells stably expressing Amyloid Precursor Protein (APP); test: In vitro BACE cell-based assay (Aβ40 in conditioned medium, sandwich ELISA); details: Homo sapiens, HEK293, HEK cells; read-out: HEK cell assay (IC50);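 note: compounds added as a dilution series, secreted peptide quantified by europium time-resolved fluorescence readout, potency fitted from percent of control versus compound concentration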

CYP2D6, sequence (P10635 whole entry): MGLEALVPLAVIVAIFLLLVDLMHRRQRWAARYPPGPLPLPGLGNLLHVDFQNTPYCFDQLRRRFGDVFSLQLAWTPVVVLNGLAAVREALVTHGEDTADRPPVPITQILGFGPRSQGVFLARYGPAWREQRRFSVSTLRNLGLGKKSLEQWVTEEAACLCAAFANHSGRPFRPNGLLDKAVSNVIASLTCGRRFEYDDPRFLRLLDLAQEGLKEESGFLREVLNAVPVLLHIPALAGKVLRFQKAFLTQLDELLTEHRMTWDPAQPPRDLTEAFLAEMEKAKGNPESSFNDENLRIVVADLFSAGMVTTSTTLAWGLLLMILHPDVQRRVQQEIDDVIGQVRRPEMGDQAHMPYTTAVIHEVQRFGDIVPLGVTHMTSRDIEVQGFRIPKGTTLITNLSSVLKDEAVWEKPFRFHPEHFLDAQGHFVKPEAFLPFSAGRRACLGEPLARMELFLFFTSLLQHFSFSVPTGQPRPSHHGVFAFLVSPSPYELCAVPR

COCC(=O)N[C@@H](Cc1cc(F)cc(F)c1)[C@H](O)CN[C@H]1CC2(CCC2)Oc2c(-c3ccncc3)cc(CC(C)C)cc21 [compound 586] showed an IC50 (CYP2D6) of 1300 nM, an RLM [1] of 65 µL/min/mg and an HLM [2] of 31 µL/min/mg. It also gave an IC50 (CYP3A4 (CYP3A)) of 100 nM, an IC50 [3] of 9 nM and an IC50 [4] of 6 nM.
In the case of COCC(=O)N[C@@H](Cc1cccc(F)c1)[C@H](O)CN[C@H]1CC2(CCC2)Oc2c1cc(CC(C)(C)F)cc2-n1ccnc1 [compound 588], the IC50 (CYP2D6) is reported as 600 nM, the RLM [1] is reported as 74 µL/min/mg and the HLM [2] is reported as 25 µL/min/mg. The IC50 (CYP3A4 (CYP3A)) was 100 nM, the IC50 [3] was 27 nM and the IC50 [4] was 6 nM.
In the case of COCC(=O)N[C@@H](Cc1cccc(F)c1)[C@H](O)CN[C@H]1CC2(CCC2)Oc2c1cc(C=C(C)C)cc2-n1ccnc1 [compound 589], the IC50 (CYP2D6) is reported as 200 nM, the RLM [1] is reported as 217 µL/min/mg and the HLM [2] is reported as 27 µL/min/mg. For the same compound, the IC50 (CYP3A4 (CYP3A)) was 200 nM, the IC50 [3] was 257 nM and the IC50 [4] was 105 nM.
Compound COCC(=O)N[C@@H](Cc1cccc(F)c1)[C@H](O)CN[C@H]1CC2(CCC2)Oc2c1cc([C@@H](O)C(C)(C)C)cc2-n1ccnc1 [compound 593] has an IC50 (CYP2D6) of 1000 nM, an RLM [1] of 29 µL/min/mg and an HLM [2] of 14 µL/min/mg. It also gave an IC50 (CYP3A4 (CYP3A)) of 100 nM, an IC50 [3] of 1590 nM and an IC50 [4] of 312 nM.
Work on CC(=O)N[C@@H](Cc1cccc(F)c1)[C@H](O)CN[C@H]1CC2(CCC2)Oc2c(-c3ccncc3)cc(Cl)cc21 [compound 595] yielded an IC50 (CYP2D6) of 500 nM, an RLM [1] of 736 µL/min/mg and an HLM [2] of 147 µL/min/mg. The IC50 (CYP3A4 (CYP3A)) was 100 nM, the IC50 [3] was 77 nM and the IC50 [4] was 51 nM.
With COCC(=O)N[C@@H](Cc1cc(F)cc(F)c1)[C@H](O)CN[C@H]1CC2(CCC2)Oc2c1cc(CC(C)(C)C)nc2Nc1ccccc1 [compound 599] the IC50 (CYP2D6) was ≥ 27000 nM, the RLM [1] was 125 µL/min/mg and the HLM [2] was 120 µL/min/mg. It also gave an IC50 (CYP3A4 (CYP3A)) of 6400 nM, an IC50 [3] of 18 nM and an IC50 [4] of 395 nM.
CC(=O)N[C@@H](Cc1ccc(F)c(-c2ccncc2)c1)[C@H](O)CN[C@H]1CC2(CCC2)Oc2ncc(CC(C)(C)C)cc21 [compound 602] showed an IC50 (CYP2D6) of 400 nM, an RLM [1] of 78 µL/min/mg and an HLM [2] of 124 µL/min/mg. For the same compound, the IC50 (CYP3A4 (CYP3A)) was 160 nM, the IC50 [3] was 23 nM and the IC50 [4] was 18 nM.
C[C@H](F)C(=O)N[C@@H](Cc1cccc(F)c1)[C@H](O)CN[C@H]1CC2(CCC2)Oc2ncc(CC(C)(F)F)cc21 [compound 608] gave an IC50 (CYP2D6) of 12200 nM, an RLM [1] of 183 µL/min/mg and an HLM [2] of 232 µL/min/mg. For the same compound, the IC50 (CYP3A4 (CYP3A)) was 4500 nM, the IC50 [3] was 8 nM and the IC50 [4] was 16 nM.
Work on CO[C@H](C)C(=O)N[C@@H](Cc1cccc(F)c1)[C@H](O)CN[C@H]1CC2(CCC2)Oc2c(-c3ccncc3)cc(CC(C)C)cc21 [compound 609] yielded an IC50 (CYP2D6) of 2000 nM, an RLM [1] of 137 µL/min/mg and an HLM [2] of 64 µL/min/mg. For the same compound, the IC50 (CYP3A4 (CYP3A)) was 100 nM, the IC50 [3] was 8 nM and the IC50 [4] was 5 nM.
For CC(=O)N[C@@H](Cc1ccc(F)cc1)[C@H](O)CN[C@H]1CC2(CCC2)Oc2c1cc(CC(C)(C)C)nc2Nc1ccccc1 [compound 610], the IC50 (CYP2D6) was ≥ 27000 nM, the RLM [1] was 213 µL/min/mg and the HLM [2] was 102 µL/min/mg. The IC50 (CYP3A4 (CYP3A)) was ≥ 27000 nM, the IC50 [3] was 199 nM and the IC50 [4] was > 10000 nM.
With COCC(=O)N[C@@H](Cc1ccccc1)[C@H](O)CN[C@H]1CC2(CCC2)Oc2ccc(C[C@H](C)F)cc21 [compound 611] the IC50 (CYP2D6) was 1200 nM, the RLM [1] was 775 µL/min/mg and the HLM [2] was 644 µL/min/mg. It also gave an IC50 (CYP3A4 (CYP3A)) of 18400 nM, an IC50 [3] of 103 nM and an IC50 [4] of 116 nM.
With COCC(=O)N[C@@H](Cc1ccc(F)cc1)[C@H](O)CN[C@H]1CC2(CCC2)Oc2c1cc(CC(C)(C)C)nc2Nc1ccccc1 [compound 612] the IC50 (CYP2D6) was ≥ 27000 nM, the RLM [1] was 245 µL/min/mg and the HLM [2] was 176 µL/min/mg. The IC50 (CYP3A4 (CYP3A)) was ≥ 27000 nM, the IC50 [3] was 210 nM and the IC50 [4] was > 10000 nM.
Compound COCC(=O)N[C@@H](Cc1cc(F)cc(-c2ccncc2)c1)[C@H](O)CN[C@H]1CC2(CCC2)Oc2ncc(CC(C)(C)C)cc21 [compound 613] has an IC50 (CYP2D6) of 300 nM, an RLM [1] of 142 µL/min/mg and an HLM [2] of 228 µL/min/mg. It also gave an IC50 (CYP3A4 (CYP3A)) of 160 nM, an IC50 [3] of 20 nM and an IC50 [4] of 11 nM.
With CC(=O)N[C@@H](Cc1cc(F)cc(-c2ccncc2)c1)[C@H](O)CN[C@H]1CC2(CCC2)Oc2ncc(CC(C)(C)C)cc21 [compound 614] the IC50 (CYP2D6) was 400 nM, the RLM [1] was 107 µL/min/mg and the HLM [2] was 244 µL/min/mg. For the same compound, the IC50 (CYP3A4 (CYP3A)) was 160 nM, the IC50 [3] was 12 nM and the IC50 [4] was 8 nM.
For CC(=O)N[C@@H](Cc1cccc(-n2ccnc2)c1)[C@H](O)CN[C@H]1CC2(CCC2)Oc2ncc(CC(C)(C)C)cc21 [compound 615, N-((1S,2R)-3-(((4′S)-6′-(2,2-dimethylpropyl)-3′,4′-dihydrospiro[cyclobutane-1,2′-pyrano[2,3-b]pyridin]-4′-yl)amino)-2-hydroxy-1-(3-(1H-imidazol-1-yl)benzyl)propyl)acetamide], the IC50 (CYP2D6) was 160 nM, the RLM [1] was 32 µL/min/mg and the HLM [2] was 59 µL/min/mg. The IC50 (CYP3A4 (CYP3A)) was 160 nM, the IC50 [3] was 60 nM and the IC50 [4] was 7 nM.
CC(=O)N[C@@H](Cc1cccc(-c2ccncc2)c1)[C@H](O)CN[C@H]1CC2(CCC2)Oc2ncc(CC(C)(C)C)cc21 [compound 616, N-((1S,2R)-3-(((4′S)-6′-(2,2-dimethylpropyl)-3′,4′-dihydrospiro[cyclobutane-1,2′-pyrano[2,3-b]pyridin]-4′-yl)amino)-2-hydroxy-1-(3-(4-pyridinyl)benzyl)propyl)acetamide] gave an IC50 (CYP2D6) of 300 nM, an RLM [1] of 96 µL/min/mg and an HLM [2] of 228 µL/min/mg. It also gave an IC50 (CYP3A4 (CYP3A)) of 160 nM, an IC50 [3] of 17 nM and an IC50 [4] of 10 nM.
Compound CC(=O)N[C@@H](Cc1cccc(-c2ccncc2)c1)[C@H](O)CN[C@H]1CC2(CCC2)Oc2ccc(CC(C)(C)C)cc21 [compound 618] has an IC50 (CYP2D6) of 300 nM, an RLM [1] of 344 µL/min/mg and an HLM [2] of 413 µL/min/mg. It also gave an IC50 (CYP3A4 (CYP3A)) of 160 nM, an IC50 [3] of 31 nM and an IC50 [4] of 38 nM.
Work on CC(=O)N[C@@H](Cc1ccc(F)c(-c2nccs2)c1)[C@H](O)CN[C@H]1CC2(CCC2)Oc2ncc(CC(C)(C)C)cc21 [compound 621, N-((1S,2R)-3-(((4′S)-6′-(2,2-dimethylpropyl)-3′,4′-dihydrospiro[cyclobutane-1,2′-pyrano[2,3-b]pyridin]-4′-yl)amino)-1-(4-fluoro-3-(1,3-thiazol-2-yl)benzyl)-2-hydroxypropyl)acetamide] yielded an IC50 (CYP2D6) of 900 nM, an RLM [1] of 64 µL/min/mg and an HLM [2] of 45 µL/min/mg. It also gave an IC50 (CYP3A4 (CYP3A)) of 160 nM, an IC50 [3] of 1 nM and an IC50 [4] of 10 nM.
In the case of CC(=O)N[C@@H](Cc1cccc(-c2cccnc2)c1)[C@H](O)CN[C@H]1CC2(CCC2)Oc2ncc(CC(C)(C)C)cc21 [compound 623], the IC50 (CYP2D6) is reported as 1300 nM, the RLM [1] is reported as 601 µL/min/mg and the HLM [2] is reported as 829 µL/min/mg. It also gave an IC50 (CYP3A4 (CYP3A)) of 160 nM, an IC50 [3] of 8 nM and an IC50 [4] of 6 nM.
CC(=O)N[C@@H](Cc1cc(Br)c2c(c1)OCO2)[C@H](O)CN[C@H]1CC2(CCC2)Oc2ncc(CC(C)(C)F)cc21 [compound 624] gave an IC50 (CYP2D6) of 1200 nM, an RLM [1] of 150 µL/min/mg and an HLM [2] of 48 µL/min/mg. It also gave an IC50 (CYP3A4 (CYP3A)) of 160 nM, an IC50 [3] of 200 nM and an IC50 [4] of 81 nM.
In the case of CC(=O)N[C@@H](Cc1ccc(F)c(-c2ccncc2)c1)[C@H](O)CN[C@H]1CC2(CCC2)Oc2ccc(CC(C)(C)C)cc21 [compound 625], the IC50 (CYP2D6) is reported as 200 nM, the RLM [1] is reported as 330 µL/min/mg and the HLM [2] is reported as 389 µL/min/mg. The IC50 (CYP3A4 (CYP3A)) was 160 nM, the IC50 [3] was 42 nM and the IC50 [4] was 57 nM.
